Usually EC50 stands for the concentration needed to bring the measured effect to its halfway point.

For 29 molecules, EC50 results are on record in patent publication US20240166652A1, “MODULATORS OF THE INTEGRATED STRESS PATHWAY” (Calico Life Sciences LLC, priority 2017, published 2024).

In the assay the test system is ATF4 luciferase reporter in HEK293T cells. As to the kind of experiment: ATF4-Luc assay (ATF4 luciferase reporter, tunicamycin-treated HEK293T cells). The format is cell-based, human. Particulars: Homo sapiens, HEK-293T; HEK293T cells carrying the ATF4 luciferase reporter, 1 μg/mL tunicamycin, 7 hours. (In general: A reporter such as luciferase makes a cellular process visible.)
In the case of `O=C(COc1ccc(OC(F)(F)F)cc1)NC12CCC(NC(=O)COc3ccc(F)cc3)(CC1)[C@@H](O)C2` [Compound 781, 2-(4-fluorophenoxy)-N-[(2S)-2-hydroxy-4-{2-[4-(trifluoromethoxy)phenoxy]acetamido}bicyclo[2.2.2]octan-1-yl]acetamide], the EC50 is less than 10 nM. As for `CCc1ccc(OCC(=O)NC23CCC(NC(=O)COc4ccc(Cl)c(F)c4)(CC2)[C@@H](O)C3)cc1` [Compound 782, 2-(4-chloro-3-fluorophenoxy)-N-{(2S)-4-[2-(4-ethylphenoxy)acetamido]-2-hydroxybicyclo[2.2.2]octan-1-yl}acetamide], the figure is less than 10 nM; as for `O=C(COc1ccc(OC(F)(F)F)cc1)NC12CCC(NC(=O)COc3ccc(Cl)cc3)(CC1)[C@@H](O)C2` [Compound 783, 2-(4-chlorophenoxy)-N-[(2S)-2-hydroxy-4-{2-[4-(trifluoromethoxy)phenoxy]acetamido}bicyclo[2.2.2]octan-1-yl]acetamide], less than 10 nM; as for `O=C(COc1ccc(OC(F)(F)F)cc1)NC12CCC(NC(=O)COc3ccc(F)c(F)c3)(CC1)[C@@H](O)C2` [Compound 784, 2-(3,4-difluorophenoxy)-N-[(2S)-2-hydroxy-4-{2-[4-(trifluoromethoxy)phenoxy]acetamido}bicyclo[2.2.2]octan-1-yl]acetamide], less than 10 nM. For the molecule `O=C(COc1ccc(OC(F)(F)F)cc1)NC12CCC(NC(=O)COc3ccc(OC(F)(F)F)cc3)(CC1)[C@@H](O)C2` [Compound 785, N,N′-[(2S)-2-hydroxybicyclo[2.2.2]octane-1,4-diyl]bis{2-[4-(trifluoromethoxy)phenoxy]acetamide}], the EC50 was in the range of 50 to 250 nM. As for `O=C(COc1ccc2c(c1)OC(F)(F)O2)NC12CCC(NC(=O)COc3ccc(OC(F)(F)F)cc3)(CC1)[C@@H](O)C2` [Compound 786, 2-[(2,2-difluoro-2H-1,3-benzodioxol-5-yl)oxy]-N-[(3S)-3-hydroxy-4-{2-[4-(trifluoromethoxy)phenoxy]acetamido}bicyclo[2.2.2]octan-1-yl]acetamide], the figure is less than 10 nM; as for `Cc1ccc(OCC(=O)NC23CCC(NC(=O)COc4ccc(Cl)cc4)(CC2)[C@@H](O)C3)cc1` [Compound 787, 2-(4-chlorophenoxy)-N-{(2S)-2-hydroxy-4-[2-(4-methylphenoxy)acetamido]bicyclo[2.2.2]octan-1-yl}acetamide], less than 10 nM; as for `Cc1ccc(OCC(=O)NC23CCC(NC(=O)COc4ccc(F)c(F)c4)(CC2)[C@@H](O)C3)cc1` [Compound 788, 2-(3,4-difluorophenoxy)-N-{(2S)-2-hydroxy-4-[2-(4-methylphenoxy)acetamido]bicyclo[2.2.2]octan-1-yl}acetamide], less than 10 nM.

As to `O=C(CO)Nc1cc(Cl)ccc1OCC(=O)NC12CC(NC(=O)COc3ccc(Cl)c(F)c3)(C1)C2` [Compound 789, 2-(4-chloro-3-fluorophenoxy)-N-(3-{2-[4-chloro-2-(2-hydroxyacetamido)phenoxy]acetamido}bicyclo[1.1.1]pentan-1-yl)acetamide], the EC50 is 50 to 250 nM. For `O=C(COc1ccc(F)c(C(F)F)c1)NC12CCC(NC(=O)COc3ccc(Cl)c(F)c3)(CC1)[C@@H](O)C2` [Compound 790, 2-(4-chloro-3-fluorophenoxy)-N-[(2S)-4-{2-[3-(difluoromethyl)-4-fluorophenoxy]acetamido}-2-hydroxybicyclo[2.2.2]octan-1-yl]acetamide] the value was less than 10 nM; for `O=C(CO)NC(COC(=O)NC12CC(NC(=O)COc3ccc(Cl)c(F)c3)(C1)C2)c1ccc(Cl)cc1` (centres unmarked) [Compound 791, 2-(4-chlorophenyl)-2-(2-hydroxyacetamido)ethyl {3-[2-(4-chloro-3-fluorophenoxy)acetamido]bicyclo[1.1.1]pentan-1-yl}carbamate], greater than 2000 nM; for `COc1cccc(OCC(=O)NC23CCC(NC(=O)COc4ccc(Cl)c(F)c4)(CC2)[C@@H](O)C3)n1` [Compound 792, 2-(4-chloro-3-fluorophenoxy)-N-[(2S)-2-hydroxy-4-{2-[(6-methoxypyridin-2-yl)oxy]acetamido}bicyclo[2.2.2]octan-1-yl]acetamide], less than 10 nM. Turning to `COc1cc(Cl)ccc1OCC(=O)NC12CCC(NC(=O)COc3ccc(Cl)c(F)c3)(CC1)[C@@H](O)C2` [Compound 793, 2-(4-chloro-3-fluorophenoxy)-N-{(2S)-4-[2-(4-chloro-2-methoxyphenoxy)acetamido]-2-hydroxybicyclo[2.2.2]octan-1-yl}acetamide], the EC50 is less than 10 nM. As for `COc1cc(OCC(=O)NC23CCC(NC(=O)COc4ccc(Cl)c(F)c4)(CC2)[C@@H](O)C3)ccc1F` [Compound 794, 2-(4-chloro-3-fluorophenoxy)-N-{(2S)-4-[2-(4-fluoro-3-methoxyphenoxy)acetamido]-2-hydroxybicyclo[2.2.2]octan-1-yl}acetamide], the figure is less than 10 nM. In the case of `O=C(COc1ccc(Cl)c(F)c1)NC12CCC(NC(=O)COc3ccc(F)c(OC(F)F)c3)(CC1)[C@@H](O)C2` [Compound 795, 2-(4-chloro-3-fluorophenoxy)-N-[(3S)-4-{2-[3-(difluoromethoxy)-4-fluorophenoxy]acetamido}-3-hydroxybicyclo[2.2.2]octan-1-yl]acetamide], the EC50 is less than 10 nM.

On to `O=C(COc1ccc(F)c(F)c1)NC12CCC(NC(=O)COc3ccc(F)c(OC(F)F)c3)(CC1)[C@@H](O)C2` [Compound 796, 2-[3-(difluoromethoxy)-4-fluorophenoxy]-N-{(2S)-4-[2-(3,4-difluorophenoxy)acetamido]-2-hydroxybicyclo[2.2.2]octan-1-yl}acetamid6], for which the half-maximal effective concentration (EC50) was 10 to 50 nM. In the case of `O=C(COc1ccc(Cl)c(F)c1)NC12CC(NC(=O)COc3ccc(Cl)cc3NCCO)(C1)C2` [Compound 797, 2-(4-chloro-3-fluorophenoxy)-N-[3-(2-{4-chloro-2-[(2-hydroxyethyl)amino]phenoxy}acetamido)bicyclo[1.1.1]pentan-1-yl]acetamide], the concentration for a half-maximal effect (EC50) was in the range of 50 to 250 nM. Regarding `O=C(COc1ccc2c(c1)OC(F)(F)O2)NC12CCC(NC(=O)COc3ccc(F)cc3)(CC1)[C@@H](O)C2` [Compound 798, 2-[(2,2-difluoro-2H-1,3-benzodioxol-5-yl)oxy]-N-{(3S)-4-[2-(4-fluorophenoxy)acetamido]-3-hydroxybicyclo[2.2.2]octan-1-yl}acetamide], the EC50 is less than 10 nM. As for `O=C(COc1ccc2c(c1)OC(F)(F)O2)NC12CCC(NC(=O)COc3ccc(Cl)cc3)(CC1)[C@@H](O)C2` [Compound 799, 2-(4-chlorophenoxy)-N-[(2S)-4-{2-[(2,2-difluoro-2H-1,3-benzodioxol-5-yl)oxy]acetamido}-2-hydroxybicyclo[2.2.2]octan-1-yl]acetamide], the figure is less than 10 nM; as for `COCC(=O)Nc1cc(Cl)ccc1OCC(=O)NC12CC(NC(=O)COc3ccc(Cl)c(F)c3)(C1)C2` [Compound 800, 2-(4-chloro-3-fluorophenoxy)-N-(3-{2-[4-chloro-2-(2-methoxyacetamido)phenoxy]acetamido}bicyclo[1.1.1]pentan-1-yl)acetamide], 50 to 250 nM; as for `O=C(COc1ccc(OC(F)F)c(F)c1)NC12CCC(NC(=O)COc3ccc(Cl)c(F)c3)(CC1)[C@@H](O)C2` [Compound 801, 2-(4-chloro-3-fluorophenoxy)-N-[(2S)-4-{2-[4-(difluoromethoxy)-3-fluorophenoxy]acetamido}-2-hydroxybicyclo[2.2.2]octan-1-yl]acetamide], less than 10 nM. As for `O=C(COc1ccc(Cl)c(F)c1)NC12CCC(NC(=O)COc3ccc(OC(F)F)c(F)c3)(CC1)[C@@H](O)C2` [Compound 802, 2-(4-chloro-3-fluorophenoxy)-N-[(3S)-4-{2-[4-(difluoromethoxy)-3-fluorophenoxy]acetamido}-3-hydroxybicyclo[2.2.2]octan-1-yl]acetamide], the figure is less than 10 nM; as for `O=C(COc1ccc(F)c(F)c1)NC12CCC(NC(=O)COc3ccc(OC(F)F)c(F)c3)(CC1)[C@@H](O)C2` [Compound 803, 2-[4-(difluoromethoxy)-3-fluorophenoxy]-N-{(2S)-4-[2-(3,4-difluorophenoxy)acetamido]-2-hydroxybicyclo[2.2.2]octan-1-yl}acetamide], less than 10 nM; as for `O=C(COc1ccc2c(c1)OC(F)(F)O2)NC12CCC(NC(=O)COc3ccc(F)c(F)c3)(CC1)[C@@H](O)C2` [Compound 804, 2-[(2,2-difluoro-2H-1,3-benzodioxol-5-yl)oxy]-N-{(3S)-4-[2-(3,4-difluorophenoxy)acetamido]-3-hydroxybicyclo[2.2.2]octan-1-yl}acetamide], less than 10 nM. As for `O=C(COc1ccc(Cl)c(F)c1)NC12CC(NC(=O)COc3ccccc3OCCO)(C1)C2` [Compound 805, 2-(4-chloro-3-fluorophenoxy)-N-(3-{2-[2-(2-hydroxyethoxy)phenoxy]acetamido}bicyclo[1.1.1]pentan-1-yl)acetamide], the figure is 500 to 2000 nM; as for `O=C(COc1ccc(Cl)c(F)c1)NC12CCC(NC(=O)COc3cccnn3)(CC1)[C@@H](O)C2` [Compound 806, 2-(4-chloro-3-fluorophenoxy)-N-[(3S)-3-hydroxy-4-{2-[(pyridazin-3-yl)oxy]acetamido}bicyclo[2.2.2]octan-1-yl]acetamide], 500 to 2000 nM. As to `O=C(CC(=O)c1ccc(Cl)cc1)NC12CCC(NC(=O)COc3ccc(Cl)c(F)c3)(CC1)[C@@H](O)C2` [Compound 807, N-{(3S)-4-[2-(4-chloro-3-fluorophenoxy)acetamido]-3-hydroxybicyclo[2.2.2]octan-1-yl}-3-(4-chlorophenyl)-3-oxopropanamide], the EC50 fell in the range of 10 to 50 nM. For `O=C(COc1ccc(F)c(OC(F)F)c1)NC12CCC(NC(=O)COc3ccc(Cl)c(F)c3)(CC1)[C@@H](O)C2` [Compound 808, 2-(4-chloro-3-fluorophenoxy)-N-[(2S)-4-{2-[3-(difluoromethoxy)-4-fluorophenoxy]acetamido}-2-hydroxybicyclo[2.2.2]octan-1-yl]acetamide] the value was less than 10 nM.

Take `O=C(COc1ccc(F)c(F)c1)NC12CCC(NC(=O)COc3cccc(C(F)(F)F)c3)(CC1)[C@@H](O)C2` [Compound 809, 2-(3,4-difluorophenoxy)-N-[(3S)-3-hydroxy-4-{2-[3-(trifluoromethyl)phenoxy]acetamido}bicyclo[2.2.2]octan-1-yl]acetamide]: the half-maximal effective concentration (EC50) is less than 10 nM.
